# Patent US20240393319A1, “FLUORESCENT SENSORS AND METHODS OF MAKING AND USING” (Howard Hughes Medical Institute, priority 2023, published 2024)
# Like-named read-outs stand apart in the source and are kept apart here.
# Experiments:
# [1] = system: LMTK- cells; experiment: Green:red ratio imaging in parental LMTK- fibroblasts; assay type: cell-based, mouse
# Description: (§1) Rho° and the parental LMTK-cells were maintained in T-75 flasks with DMEM+10% FBS+1 mM pyruvate+5 μM uridine. Two days prior to transfection, they were split into a 24-well plate (half Rho°, half LMTK) at 0.6 and 0.1 million cells per well, respectively. Cells were transfected with iATPSnFR2.HaloTag variants by lipofectamine (0.5 μg DNA+2 μL lipofectamine 2000 per well) for 4-6 hours in DMEM lacking FBS or antibiotics. Transfection media was replaced with fresh DMEM+10% FBS+penicillin/streptomycin overnight. Cells were labeled with JFX650 HaloTag ligand by adding the fluorophore to 100 nM for an hour. Cells were washed with Mammalian Cell Imaging Buffer and imaged in a Cytation 5 imaging reader (BioTek) over the course of about 2 hours. After about 20 minutes of imaging to establish a baseline fluorescence, the culture plate was removed from the instrument and buffer was replaced with the query buffer. The equilibration buffer contained 10 mM glucose, and the query buffers contained 10 mM 2dOG.
# (§2) Images were background subtracted and aligned for movement artefacts with the Gen5 software package that controls the Cytation 5 instrument. Images were assembled as TIF stacks and imported into ImageJ. […] Those ROIs were used to determine the ratio of green to red fluorescence for each well. […]
# [2] = system: Rho° (ρ^0) cells; experiment: Green:red ratio imaging in Rho° fibroblasts; assay type: cell-based, mouse; conditions: 10 mM 2dOG
# Description: as §1, §2
# [3] = molecular target: T1, iATPSnFR2.A95A.A119L.HaloTag-JFX650 (L1-VLVG, L2-ICV); cpSFGFP inserted in epsilon subunit of Bacillus subtilis PS3 F0-F1 ATPase; mutations A95A, A119L; SEQ ID N (Bacillus sp. PS3, UniProt P07678); experiment: ATP/nucleotide titration, binding curve fits; conditions: for Kd: A95A.A119L; for fluorescence change in response to nucleoside triphosphate: GTP, CTP, TTP
# T1 construct: E. coli, Ni-NTA purified
# T1 sequence (P07678 whole entry, stated change not applied): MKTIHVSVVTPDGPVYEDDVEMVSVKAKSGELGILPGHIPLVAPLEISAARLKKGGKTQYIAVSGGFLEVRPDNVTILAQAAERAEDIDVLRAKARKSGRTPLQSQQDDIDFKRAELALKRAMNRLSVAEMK
# Text: (1A) Artistic rendering of iATPSnFR2.HaloTag made with PyMol. The N-terminal fragment (residues 1-109) of the epsilon subunit of ATPase (orange, based on 2E5Y.PDB) is fused to cpSFGFP (green). The C-terminus of cpSFGFP is fused to the residual ATP-binding helix (residues 110-129) of the epsilon subunit (pink), which itself is fused to HaloTag (cyan). “Linkers” are shown as sticks in yellow. […] HaloTag fluorophore is shown as sticks in red. […] (1C-1E) Ratio of green (iATPSnFR2) to red (HaloTag-JFX650) fluorescence in fibroblasts transfected with three affinity variants of iATPSnFR2-HaloTag. […] Cells were incubated for 21 minutes in buffer containing 10 mM glucose, and then switched to buffer containing 10 mM 2-deoxyglucose. (1C) Rho° cells. (1D) Parental LMTK cell line. (1E) Parental cell line treated with both 2-deoxyglucose and oligomycin.
# ATP (black), CTP (cyan), GTP (grey), TTP (purple).
# (§3) Purified protein was mixed with 1.1 molar equivalents of JFX650 HaloTag Ligand and incubated at room temperature for 1 hour and then at 4° C. overnight. Excess HaloTag Ligand was removed by gel filtration on a PD-10 column (GE Life Sciences) and re-concentrated by ultrafiltration.
# The iATPSnFR2.HaloTag-JFX650 was the primary protein used for in vitro characterization.
# [4] = system: MaLion; conditions: cited from earlier work
# [5] = system: ChemoG-ATPSiR; conditions: cited from earlier work
# [6] = system: axonal mitochondria of primary neurons; experiment: Axonal mitochondrial ATP (mito-iATPSnFR2) after removal of glucose; assay type: cell-based
# Description: Similar results were obtained in neurons where LDs were induced by blocking DDHD2 activity with KLH45 for 24 hours.
# [7] = system: axonal mitochondria of primary hippocampal neurons; experiment: Mitochondrial matrix ATP without glucose (mito-iATPSnFR2); assay type: cell-based, Sprague-Dawley rats
# Description: Data is represented as mean±SE for N=4 (each condition). […] Data from N=4 for each condition is represented as mean±SE, p-value (**≤0.001 for PA and PA+Etox) was determined using unpaired samples t-test. ns signifies non-significant change in mean values.
# (§4) Primary neuronal cultures were prepared as previously described. Hippocampal CA1 to CA3 regions were dissected, dissociated, and plated onto poly-L-ornithine-coated coverslips. Plating media consisted of the minimal essential medium, 0.5% glucose, insulin (0.024 g/l), transferrin ([…]), GlutaMAX 1%, N-21 (2%), and fetal bovine serum (10%). After 1-3 days in vitro (DIV), cells were fed and maintained in media with the following modifications: cytosine β-D-arabinofuranoside (4 μM) and FBS 5%. Cultures were incubated at 37° C. in a 95% air/5% CO2 incubator. […]
# (§5) Coverslips were loaded onto a custom chamber, mounted on a Zeiss inverted microscope and perfused at ˜100 μl min^−1 with Tyrode's solution containing: 119 mM NaCl, 2.5 mM KCl, 30 mM glucose, 25 mM HEPES, 2 mM CaCl2), 2 mM MgCl2, 50 μM DL-2-amino-5-phosphonovaleric acid (APV, AP5), 10 μM 6-cyano-7-nitroquinoxaline-2,3-dione (CNQX), adjusted to pH 7.4. […] Fluorescence was stimulated with OBIS 488 nm LX or OBIS 637 nm LS lasers (Coherent) passing through a laser speckle reducer (LSR 3005 at 12° diffusion angle, Optotune). […]
# [8] = system: axonal mitochondria of primary hippocampal neurons; experiment: mito-iATPSnFR2.HaloTag imaging of mitochondrial ATP in neurons; assay type: cell-based, rat; conditions: 1.25 mM lactate + 1.25 mM pyruvate + 10 μM oligomycin
# Description: All experiments involving animals were performed in accordance with protocols approved by the Weill Cornell Medicine Institutional Animal Care and Use Committee. Neurons were derived from Sprague-Dawley rats (Charles River Laboratories strain code: 001, RRID: RGD_734476) of either sex on postnatal days 0-2).
# as §4, §5
# [9] = TTP titration of purified iATPSnFR2 sensor; assay type: binding
# Description: iATPSnFR2 variants were transformed into E. coli BL21 (DE3) pLysS cells. Protein expression was induced by growth in 300 mL autoinduction media supplemented with 100 μg/mL ampicillin at 30° C. […] Fractions that were fluorescent were pooled and concentrated by ultrafiltration (Amicon) and then dialyzed by Slide-A-Lyzer cassette (30 kDa cutoff) in Mammalian Cell Imaging Buffer. Protein concentration was quantified by alkali denaturation and measurement of the GFP chromophore, with an extinction coefficient of […] at 447 nm.
# as §3
# [10] = ATP titration with added inorganic phosphate; assay type: binding; conditions: 20 mM PO4, pH 7
# [11] = system: synaptic boutons of hippocampal neurons; experiment: Syn-iATPSnFR2.HaloTag imaging of ATP depletion in boutons; assay type: cell-based, rat; conditions: 5 mM glucose + 10 μM KA + 0.3 μM TTX
# [12] = system: nerve terminals of dissociated hippocampal neurons; experiment: Cytosolic ATP in nerve terminals during action potential firing; assay type: cell-based, rat; conditions: 6 sec at 50 Hz, 5 mM glucose + 10 μM KA
# [13] = Stopped-flow fluorescence kinetics of ATP binding
# Description: Final concentration of protein was thus 0.1 μM.
# [14] = pH dependence of fluorescence; assay type: physicochemical; conditions: ligand-free sensor
compound,measurement,setting,value
"O=CC[C@@H](O)[C@H](O)[C@H](O)CO [2dOG, 2-deoxyglucose]",fluorescence after 2dOG treatment,"[1]; 10 mM 2dOG, parental LMTK- cells",decreased fluorescence only in the parental LMTK-cells expressing the weakest affinity variant
same,green fluorescence after glucose replaced with 2dOG,[2],rapidly dropped
Nc1ncnc2c1ncn2[C@@H]1O[C@H](COP(=O)(O)OP(=O)(O)O)[C@@H](O)[C@H]1O [ADP],ΔF/F for ADP,[3],~6
same,Kd,"[3]; read-out: affinity for ADP (binding curve fit), head-to-head with ATP",5.3 mM
same,Kd,"[3]; read-out: affinity for ADP, FIG. 1B, 5D",5.3 mM
Nc1ncnc2c1ncn2[C@@H]1O[C@H](COP(=O)(O)O)[C@@H](O)[C@H]1O [AMP],affinity for AMP,[3],"minimal, if any, affinity"
Nc1ccn([C@@H]2O[C@H](COP(=O)(O)OP(=O)(O)OP(=O)(O)O)[C@@H](O)[C@H]2O)c(=O)n1 [CTP],fluorescence change in response to nucleoside triphosphate,[3]; FIG. 5E,changes fluorescence
same,Kd,"[3]; read-out: affinity for CTP (binding curve fit), FIG. 5E",~10 mM
Nc1nc2c(ncn2[C@@H]2O[C@H](COP(=O)(O)OP(=O)(O)OP(=O)(O)O)[C@@H](O)[C@H]2O)c(=O)[nH]1 [GTP],fluorescence change in response to nucleoside triphosphate,[3]; FIG. 5E,changes fluorescence
same,Kd,"[3]; read-out: affinity for GTP (binding curve fit), FIG. 5E",~10 mM
same,change in fluorescence with GTP,[4],no change in fluorescence
same,change in fluorescence with GTP,[5],no change in fluorescence
O=C(N(CCc1ccccc1)C1CCCCC1)n1ncc(-c2ccc(OC(F)(F)F)cc2)n1 [KLH45],mitochondrial ATP levels after removal of glucose,"[6]; DDHD2 blocked for 24 hours, then glucose and KLH45 removed",sustained
same,mitochondrial ATP levels in absence of glucose,"[7]; KLH45 for 24 hours, then removed",ATP levels are sustained
Cc1cn([C@H]2C[C@H](O)[C@@H](COP(=O)(O)OP(=O)(O)OP(=O)(O)O)O2)c(=O)[nH]c1=O [TTP],fluorescence change in response to nucleoside triphosphate,[3]; FIG. 5E,not
CCOC(=O)[C@@]1(CCCCCCOc2ccc(Cl)cc2)CO1 [etomoxir],mitochondrial ATP levels after removal of glucose,"[6]; after KLH45 24 hours, etomoxir included",ATP decline over a 10-minute period
same,decline in mitochondrial ATP level,"[6]; palmitic acid pre-fed neurons, applied when removing glucose",identical to the control neurons without any fuel supplement
CC[C@H]1/C=C/C=C/C[C@@H](C)[C@H](O)[C@@](C)(O)C(=O)[C@@H](C)[C@H](O)[C@@H](C)C(=O)[C@@H](C)[C@H](O)[C@@H](C)/C=C/C(=O)O[C@@H]2[C@H](C)[C@H](CC1)O[C@]1(CC[C@H](C)[C@H](C[C@@H](C)O)O1)[C@H]2C [oligomycin],fluorescence after 2dOG and oligomycin,"[1]; parental cells, both 2dOG and oligomycin",dropped in a manner similar to the ρ^0 cells
same,mitochondrial ATP signal,[8],further collapse of the ATP signal
CCCCCCCCCCCCCCCC(=O)O [palmitic acid],mitochondrial ATP levels in absence of glucose,"[6]; pre-fed for 4 hours, 10 minutes",sustained
same,mitochondrial ATP levels in absence of glucose,"[7]; palmitic acid pre-fed for 4 hours, 10 minutes",mitochondrial ATP levels were sustained
"A95A.A119L: low affinity iATPSnFR2 variant, characterised as HaloTag-JFX650 fusion",fluorescence response to TTP,[9],but not TTP
same,effect of inorganic phosphate on the sensor,[10],negligibly affected
same,green fluorescence after glucose replaced with 2dOG,[2],nearly non-fluorescent within minutes of treatment
same,average green to red fluorescence ratio in boutons,[11],greater drop than the medium affinity A95K variant
"A95K: medium affinity iATPSnFR2 variant, characterised as HaloTag-JFX650 fusion",fluorescence change on action potential firing,[12],much smaller amplitude
same,"rate of ATP binding / fluorescence change, comparison",[13],faster than A95A.A119L
"S29W.A95K: high affinity iATPSnFR2 variant, characterised as HaloTag-JFX650 fusion","rate of ATP binding / fluorescence change, comparison",[13],faster than A95A.A119L
"iATPSnFR2: improved ATP sensor: cpSFGFP inserted in epsilon subunit of ATPase, L1-VLVG, L2-ICV, A95A, A119L",effect of inorganic phosphate on the sensor,[10],not affected
same,pKa,[14],about 6.0
